Experimental data published in patent publication US20110251379A1, “COMPOUNDS USEFUL FOR TREATING NEURODEGENERATIVE DISORDERS” (Satori Pharmaceuticals, Inc., priority 2010, published 2011).
Read-outs that look alike come from different tables or passages of the source.

How the values were obtained:
Format in all cases: cell-based
Aβ-38 = assay: MSD Human (6E10) Ab 3-PLEX elisa, conditioned media of 2B7 cells: Aβ-38; details: for IC50: Aβ-38 (superscript a); for inhibition at 20 µM: Aβ-38, 20 μM
Protocol: (§1) Assays were conducted to determine the ability of a Compound of Formula I to modulate […], and Aβ-38.
(§2) Plates with capture antibodies were blocked for 1-2 hours at room temperature with 150 μL of the manufactures blocking reagent.
(§3) Conditioned Media: • Cultured 2B7 cells in 96 well plate with 250 uL of media per well until confluent; • Prepared serial dilutions of compounds in DMSO at 100× the final desired concentration; • Washed wells with 2B7 cells 1× with 250 uL of media; • Diluted DMSO stocks 1:100 into media: • Added 250 μL of media containing compounds (1% DMSO) to wells with 2B7 cells for 5 hours at 37° C.
(§4) Elisa Sample Prep: • Diluted conditioned media: 1 part media with 1% DMSO and 1 part blocking buffer; • 150 μL of the 250 μL of conditioned media were used.
(§5) […] CURVE SAMPLE PREP: Prepared per manufacturer's protocol (see above) • Seven point standard curve samples were prepared that contained Aβ-42, Aβ-40, and Aβ-38. The highest concentration of Aβ-42 and Aβ-3-38 was 3,000 pg/mL and the highest concentration of Aβ-40 was 10,000 pg/mL. Subsequent serial dilutions were 1:3 and the final composition of each sample was 1 part blocking buffer and 1 part cell medium containing 1% DMSO.
(§6) Overnight Sample Incubation: • Blocked plates are washed 5× with MSD wash buffer with a plate washer • 25 uL of detection antibody and blocker G reagent in MSD blocking solution is added • 25 uL of samples (1 part conditioned media containing 1% DMSO and 1 part MSD blocking buffer) are then added. • plates are incubated overnight at 4 degrees C. or 2 hours at room temp
(§7) Final Wash and Readout: • Wash wells 5× with MSD wash buffer • Added 150 μL 2×MSD read buffer • Read with MSD imager.
(§8) A-Beta peptide levels for each peptide are calculated from the standard curve using the MSD software provided with the MSD 2400 Imager. Percent vehicle values for each compound dosage were then calculated and fit to a 4 parameter curve generating IC50 values.

Aβ-42 = assay: MSD Human (6E10) Ab 3-PLEX elisa, conditioned media of 2B7 cells: Aβ-42; details: for inhibition at 20 µM: Aβ-42, 20 μM; for IC50: Aβ-42 (superscript c)
Protocol: as §1, §2, §3, §4, §5, §6, §7, §8

Aβ-40 = assay: MSD Human (6E10) Ab 3-PLEX elisa, conditioned media of 2B7 cells: Aβ-40; details: for IC50: Aβ-40 (superscript b); for inhibition at 20 µM: Aβ-40, 20 μM
Protocol: as §1, §2, §3, §4, §5, §6, §7, §8

[1] = Homo sapiens, read-out: 50% reduction value
[2] = Homo sapiens, read-out: IC50 range

C[C@@H]1CC(COC(=O)C2CC2)OC2[C@H]1[C@@]1(C)CC[C@@]34C[C@@]35CC[C@H](O[C@H]3CN(C6COC6)CCO3)C(C)(C)[C@@H]5CCC4[C@]1(C)[C@H]2O (stereo partly shown)
IC50 (Aβ-38; [1]): 1 to 10 µM
inhibition at 20 µM (Aβ-42; Homo sapiens): < 25%
IC50 (Aβ-40; [1]): > 10 µM

CC(C)O[C@@H](C1C[C@@H](C)[C@H]2C(O1)[C@H](O)[C@@]1(C)C3CC[C@H]4C(C)(C)C(O[C@H]5CN(C6COC6)CCO5)CC[C@@]45C[C@@]35CC[C@]21C)C(C)(C)O (stereo partly shown)
IC50 (Aβ-38; [1]): < 1 µM
IC50 (Aβ-38; [2]): < 1 µM
IC50 (Aβ-42; [1]): < 1 µM
IC50 (Aβ-42; [2]): < 1 µM
IC50 (Aβ-40; [1]): 1 to 10 µM
IC50 (Aβ-40; [2]): 1 to 10 µM

CC(C)[C@@H](OC(=O)N1CCC1)C1C[C@@H](C)[C@H]2C(O1)[C@H](O)[C@@]1(C)C3CC[C@H]4C(C)(C)C(OC(=O)N5CCn6c(nnc6C(F)(F)F)C5)CC[C@@]45C[C@@]35CC[C@]21C (stereo partly shown)
IC50 (Aβ-38; [1]): < 1 µM
IC50 (Aβ-42; [1]): < 1 µM
inhibition at 20 µM (Aβ-40; Homo sapiens): 25 to 75%

CNC(=O)OC(C)(C)[C@@H](O)[C@H]1C[C@@H](C)[C@H]2[C@H](O1)[C@H](O)[C@@]1(C)C3CC[C@H]4C(C)(C)[C@@H](O)CC[C@@]45C[C@@]35CC[C@]21C (stereo partly shown)
IC50 (Aβ-38; [1]): 1 to 10 µM
inhibition at 20 µM (Aβ-42; Homo sapiens): 25 to 75%
IC50 (Aβ-40; [1]): > 10 µM

CC1CC(C(OC(=O)C2CCOCC2)C(C)(C)O)OC2C1C1(C)CCC34CC35CCC(OC3CN(C6COC6)CCO3)C(C)(C)C5CCC4C1(C)C2O (stereo not shown)
IC50 (Aβ-38; read-out: 50% reduction value): < 1 µM
IC50 (Aβ-38; read-out: IC50 range): < 1 µM
IC50 (Aβ-42; read-out: 50% reduction value): < 1 µM
IC50 (Aβ-40; read-out: 50% reduction value): 1 to 10 µM
IC50 (Aβ-40; read-out: IC50 range): 1 to 10 µM

CNC(=O)O[C@@H]([C@H]1C[C@@H](C)[C@H]2[C@H](O1)[C@H](O)[C@@]1(C)C3CC[C@H]4C(C)(C)[C@@H](O)CC[C@@]45C[C@@]35CC[C@]21C)C(C)(C)O (stereo partly shown)
inhibition at 20 µM (Aβ-38; Homo sapiens): 25 to 75%
inhibition at 20 µM (Aβ-42; Homo sapiens): 25 to 75%
inhibition at 20 µM (Aβ-40; Homo sapiens): 25 to 75%

CS[C@@H](C1C[C@@H](C)[C@H]2C(O1)[C@H](O)[C@@]1(C)C3CC[C@H]4C(C)(C)C(O)CC[C@@]45C[C@@]35CC[C@]21C)C(C)(C)O (stereo partly shown)
IC50 (Aβ-38; [1]): < 1 µM
IC50 (Aβ-42; [1]): 1 to 10 µM
IC50 (Aβ-40; [1]): > 10 µM

CCO[C@@H]([C@H]1C[C@@H](C)[C@H]2[C@H](O1)[C@H](O)[C@@]1(C)[C@@H]3CC[C@H]4C(C)(C)[C@@H](OC(=O)NC5CN(C)C5)CC[C@@]45C[C@@]35CC[C@]21C)C(C)(C)O
IC50 (Aβ-38; [1]): < 1 µM
IC50 (Aβ-38; [2]): < 1 µM
IC50 (Aβ-42; [1]): < 1 µM
IC50 (Aβ-42; [2]): < 1 µM
IC50 (Aβ-40; [1]): < 1 µM
IC50 (Aβ-40; [2]): 1 to 10 µM

CC1CC(C(OC(=O)C2CC2)C(C)(C)O)OC2C1C1(C)CCC34CC35CCC(OC3CN(C6COC6)CCO3)C(C)(C)C5CCC4C1(C)C2O (stereo not shown)
IC50 (Aβ-38; read-out: 50% reduction value): 1 to 10 µM
IC50 (Aβ-38; read-out: IC50 range): < 1 µM
IC50 (Aβ-42; read-out: 50% reduction value): 1 to 10 µM
IC50 (Aβ-40; read-out: 50% reduction value): 1 to 10 µM

CO[C@H](C(C)C)C1C[C@@H](C)[C@H]2C(O1)[C@H](O)[C@@]1(C)C3CC[C@H]4C(C)(C)[C@@H](O)CC[C@@]45C[C@@]35CC[C@]21C (stereo partly shown)
IC50 (Aβ-38; [1]): 1 to 10 µM
inhibition at 20 µM (Aβ-42; Homo sapiens): 25 to 75%
IC50 (Aβ-40; [1]): > 10 µM

CCO[C@@H](C1C[C@@H](C)[C@H]2C(O1)[C@H](O)[C@@]1(C)C3CC[C@H]4C(C)(C)C(O[C@H]5CN(CCCC(=O)O)CCO5)CC[C@@]45C[C@@]35CC[C@]21C)C(C)(C)O (stereo partly shown)
IC50 (Aβ-38; [1]): 1 to 10 µM
IC50 (Aβ-38; [2]): 1 to 10 µM
IC50 (Aβ-42; [1]): < 1 µM
IC50 (Aβ-42; [2]): < 1 µM
IC50 (Aβ-40; [1]): 1 to 10 µM

CCO[C@@H](C1C[C@@H](C)[C@H]2C(O1)[C@H](O)[C@@]1(C)C3CC[C@H]4C(C)(C)C(OC5CN(Cc6ccccc6)CCO5)CC[C@@]45C[C@@]35CC[C@]21C)C(C)(C)O (stereo partly shown) [drawing 1282]
IC50 (Aβ-38; [1]): 1 to 10 µM
IC50 (Aβ-38; [2]): 1 to 10 µM
IC50 (Aβ-42; [1]): 1 to 10 µM
IC50 (Aβ-42; [2]): 1 to 10 µM
IC50 (Aβ-40; [1]): 1 to 10 µM

C[C@@H]1CC(COC(=O)C2CCC2)OC2[C@H]1[C@@]1(C)CC[C@@]34C[C@@]35CC[C@H](O[C@H]3CN(C6COC6)CCO3)C(C)(C)[C@@H]5CCC4[C@]1(C)[C@H]2O (stereo partly shown)
inhibition at 20 µM (Aβ-38; Homo sapiens): 25 to 75%
inhibition at 20 µM (Aβ-42; Homo sapiens): < 25%
inhibition at 20 µM (Aβ-40; Homo sapiens): < 25%

CCO[C@@H]([C@H]1C[C@@H](C)[C@H]2[C@H](O1)[C@H](O)[C@@]1(C)[C@@H]3CC[C@H]4C(C)(C)[C@@H](OC5CNCCO5)CC[C@@]45C[C@@]35CC[C@]21C)C(C)(C)O (stereo partly shown)
IC50 (Aβ-38; [1]): < 1 µM
IC50 (Aβ-38; [2]): < 1 µM
IC50 (Aβ-42; [1]): < 1 µM
IC50 (Aβ-42; [2]): < 1 µM
IC50 (Aβ-40; [1]): 1 to 10 µM
IC50 (Aβ-40; [2]): 1 to 10 µM
